# Laboratory results taken from US20250195561A1, “A CATIONIC DENDRIMER FOR IMPROVING ANTIBIOTIC EFFICACY OF AN ANTIBIOTIC” (GAMA HEALTHCARE LTD, priority 2022, published 2025).
# Read-outs that look alike come from different tables or passages of the source.
# Legend:
# Assay type in all cases: cell-based
# [1] = system: Pseudomonas aeruginosa strain PA01; assay: Antibiotic disc diffusion assay (zone of inhibition); settings: antibiotic disc on Iso-Sensitest agar, 37° C., 20 hours, ±Stdev, n = 2
# Procedure: (§1) The antibiotic disc diffusion assay was performed as described previously to determine the antibiotic susceptibility of the two strains. Briefly, a standardised suspension of the two Pseudomonas strains was used to inoculate Iso-Sensitest agar (ISA) plates to yield semi-confluent growth of each organism. Antibiotic discs containing Gentamicin and Imipenem were applied to the inoculated plates, then incubated at 37° C. for 20 hours. Zones of inhibition were measured to the nearest millimetre.
# [2] = system: Pseudomonas aeruginosa strain PS3; assay: as above; settings: antibiotic disc on Iso-Sensitest agar, 37° C., 20 hours, ±Stdev, n = 2
# Procedure: as §1
# [3] = system: Pseudomonas aeruginosa strain PA01; assay: 96-well broth dilution test (MIC) in presence and absence of dendrimer; settings: for MIC: MHB, 37° C., 24 hours; for Reduction (%) in MIC: with dendrimer (0.1%) versus antibiotic alone
# Procedure: (§2) Briefly, a standard suspension of the two Pseudomonas strains was prepared in Mueller Hinton Broth (MHB), then added to varying concentrations of antibiotic in a 96-well plate. Tests were performed either in the presence or absence of dendrimer (final concentration 0.1%). 96-well plates were incubated at 37° C. for 24 hours, with optical density (620 nm) of cultures monitored over this period using a Multiskan EX plate reader (Thermo Labsystems).
# [4] = system: Pseudomonas aeruginosa strain PS3; assay: as above; settings: for MIC: MHB, 37° C., 24 hours; for Reduction (%) in MIC: with dendrimer (0.1%) versus antibiotic alone
# Procedure: as §2
# [5] = presence of dendrimer (final concentration 0.1%)
Compound,Zone of inhibition [1],Zone of inhibition [2],"MIC ([3]; Pseudomonas aeruginosa, PA01, 24 h, absence of dendrimer, read-out: MIC)","MIC ([3]; Pseudomonas aeruginosa, PA01, 24 h, presence of dendrimer (final concentration 0.1%), read-out: MIC)",Reduction (%) in MIC [3],"MIC ([4]; Pseudomonas aeruginosa, PS3, 24 h, absence of dendrimer, read-out: MIC)","MIC ([4]; Pseudomonas aeruginosa, PS3, 24 h, presence of dendrimer (final concentration 0.1%), read-out: MIC)",Reduction (%) in MIC [4],MIC ([3]; absence of dendrimer),"MIC [3, 5]",MIC ([4]; absence of dendrimer),"MIC [4, 5]"
C[C@@H](O)[C@H]1C(=O)N2C(C(=O)O)=C(SCCN=CN)C[C@H]12 [Imipenem],12 (±2.8) Mm,35 (±0.0) Mm,28.3 µg/mL,< 0.011 µg/mL,> 99.9%,51.1 µg/mL,< 0.011 µg/mL,> 99.9%,–,–,–,–
Gentamicin,38 (±1.4) Mm,46 (±0.7) Mm,–,–,71%,–,–,78%,4.64 µg/mL,1.34 µg/mL,1.45 µg/mL,0.32 µg/mL
